These results are taken from ChEMBL document CHEMBL3232912, “Anti-inflammatory diterpenoids from the roots of Euphorbia ebracteolata” (J Nat Prod, 2014).

Data set [1] deals with RAW264.7. As to the kind of experiment: Antiinflammatory activity in mouse RAW264.7 cells assessed as inhibition of LPS-induced nitric oxide production after 24 hrs by Griess method. The following applies: RAW264.7, 24 h. Type of data set: functional, cell-based. (Griess reagent forms a coloured azo dye with nitrite.)
Data set [2] concerns RAW264.7. As to the kind of experiment: Cytotoxicity against mouse RAW264.7 cells at IC50 by MTT assay. It counts as cell-based. On the technique in general: Tetrazolium dyes change colour on reduction, which living cells bring about.

For the compound `C=C[C@]1(C)CC[C@@]2(C)c3cc(O)c(O)c(C)c3CC[C@@H]2C1`, the IC50 (in general, the concentration that gives 50% inhibition) in the data set on RAW264.7 [1] worked out at 3.33 µM. For the same compound, the Activity entry in the data set on RAW264.7 [2] is on record as “Non-toxic”. Taken in the same sequence, the figures for `C=C[C@]1(C)CC[C@]2(C)[C@H](CC[C@H]3[C@@](C)(CO)C(=O)C=C[C@@]32O)C1` were 7.32 µM and “Non-toxic”. As for `C=C[C@]1(C)CC[C@@]2(C)C3=CC(=O)[C@@H]4C[C@]4(C)[C@]3(O)CC[C@@H]2C1`, the half-inhibitory concentration (IC50) in the data set with RAW264.7 [1] amounted to 2.76 µM. Moreover, in the data set on RAW264.7 [2], the Activity result is recorded as “Non-toxic”. In the case of `C=C[C@]1(C)CC[C@@]2(C)C3=C[C@@H](O)[C@H](O)C(C)(C)[C@@H]3CC[C@@H]2C1`, in the data set on RAW264.7 [1], the IC50 is 24.3 µM. In addition, the Activity result in the data set on RAW264.7 [2] is given as “Non-toxic”. Take `C=C[C@]1(C)CC[C@@]2(C)C3=C[C@H](O)[C@H](O)C(C)(C)[C@@H]3CC[C@@H]2C1`: the half-maximal inhibitory concentration (IC50) with RAW264.7 [1] was 12.5 µM. In addition, the Activity result in the data set on RAW264.7 [2] is reported as “Non-toxic”. Take `C=C[C@]1(C)CC[C@@]2(C)C3=CC(=O)[C@H](O)[C@](C)(CO)[C@@H]3CC[C@@H]2C1`: the IC50 with RAW264.7 [1] turned out to be 1.02 µM. Also, the Activity result in the data set on RAW264.7 [2] was “Non-toxic”.

`C=C[C@]1(C)CC[C@]2(C)[C@H](CC[C@H]3[C@@](C)(CO)C(=O)C=C[C@]32O)C1`: the IC50 in the data set with RAW264.7 [1] turned out to be 19 µM. For the same compound, the Activity result in the data set with RAW264.7 [2] was “Non-toxic”.

Regarding `C=C[C@]1(C)CC[C@@]2(C)c3cc(O)c(O)c(C)c3C[C@H](O)[C@@H]2C1`, in the data set on RAW264.7 [1], the IC50 stood at 2.44 µM. In the data set with RAW264.7 [2], the Activity result is listed as “Non-toxic”. Regarding `C=C[C@]1(C)CC[C@@]2(CO)C3=CC(=O)O[C@@H]3C(C)(C)CC[C@@H]2C1`, the IC50 in the data set on RAW264.7 [1] is 7.5 µM. The Activity result in the data set on RAW264.7 [2] is “Non-toxic”. With `C=C[C@]1(C)CC[C@@]2(C)C3=CC(=O)O[C@@H]3C(C)(C)C[C@H](O)[C@@H]2C1`, the 50% inhibitory concentration (IC50) in the data set with RAW264.7 [1] was 6.49 µM. In the data set on RAW264.7 [2], the Activity entry is recorded as “Non-toxic”. In the case of `C=C[C@]1(C)CC[C@@]2(C)C3=CC[C@H](O)[C@](C)(CO)[C@@H]3CC[C@@H]2C1`, in the data set with RAW264.7 [1], the IC50 turned out to be 7.29 µM. In addition, the Activity result with RAW264.7 [2] was “Non-toxic”. Taken in the same sequence, the figures for `C=C[C@]1(C)CC[C@@]2(C)C3=CC[C@H](O)C(C)(C)[C@@H]3C[C@H](O)[C@@H]2C1` were 5.51 µM and “Non-toxic”.

For `C=C[C@]1(C)CC[C@@]2(CO)C3=CC[C@H](O)C(C)(C)[C@@H]3CC[C@@H]2C1`, the IC50 in the data set with RAW264.7 [1] is 5.57 µM. For the same compound, the Activity result in the data set with RAW264.7 [2] is “Non-toxic”. In the case of `COc1ccc2c(c1)c(CC(=O)O)c(C)n2C(=O)c1ccc(Cl)cc1` [INDOMETHACIN], the IC50 in the data set on RAW264.7 [1] came out at 16.7 µM.
